Laboratory results as given in patent US7115596B2, “Thiazole compounds as integrin receptor antagonists derivatives” (Pharmacia Corporation, priority 2002, dated 2006).
Structures can show the parent of a compound that is named as a salt.

Experiment: Plasma level upon oral dosing (AUC-PO) in rat
Format: in vivo
Settings: per dose; for Rat AUC/Dose: Table 1; for Rat PK-AUC/dose: second table

SMILES	Rat AUC/Dose	Rat PK-AUC/dose
O=C(O)C[C@H](Cc1csc(CCCCNc2cc(N3CCOCC3)ccn2)n1)c1ccc2c(c1)OCO2	0.0634 ug-/m/L/mg/Kg	
O=C(O)CC(Cc1csc(CCCc2ccc3c(n2)NCCC3)n1)c1ccc2c(c1)OCO2 (stereo not drawn) [drawing 98]	6.81 ug-/m/L/mg/Kg	
O=C(O)C[C@H](Cc1csc(CCCc2ccc3c(n2)NCCC3)n1)c1ccc2c(c1)OCO2 [Example 7, (3S)-3-(1,3-benzodioxol-5-yl)-4-{2-[3-(5,6,7,8-tetrahydro-1,8-naphthyridin-2-yl)propyl]-1,3-thiazol-4-yl}butanoic acid hydrochloride]		8.7 ug-h/m/L/mg/Kg
O=C(O)CC(Cc1csc(CCCc2ccc3c(n2)NCCC3)n1)c1ccc2c(c1)OCO2 (stereo not drawn) [Example 6, 3-(1,3-benzodioxol-5-yl)-4-{2-[3-(5,6,7,8-tetrahydro-1,8-naphthyridin-2-yl)propyl]-1,3-thiazol-4-yl}butanoic acid hydrochloride]		6.8 ug-h/m/L/mg/Kg
O=C(O)CC(Cc1csc(CCCc2ccc3c(n2)NCCC3)n1)c1cnc(C2CC2)s1 (stereo not drawn) [Example 16, 3-(2-Cyclopropyl-1,3-thiazol-5-yl)-4-{2-[3-(5,6,7,8-tetrahydro-1,8-naphthyridin-2-yl)propyl]-1,3-thiazol-4-yl}butanoic acid hydrochloride]		1.7 ug-h/m/L/mg/Kg

Other lines, results leading:

Rat AUC/Dose	Rat PK-AUC/dose	SMILES
	2.5 ug-h/m/L/mg/Kg	Cc1nc2cc(C(CC(=O)O)Cc3csc(CCCc4ccc5c(n4)NCCC5)n3)ccc2s1 (stereo not drawn) [Example 9, 3-(2-methyl-1,3-benzothiazol-5-yl)-4-{2-[3-(5,6,7,8-tetrahydro-1,8-naphthyridin-2-yl)propyl]-1,3-thiazol-4-yl}butanoic acid hydrochloride]
	1.8 ug-h/m/L/mg/Kg	COc1ccc(C(CC(=O)O)Cc2csc(CCCc3ccc4c(n3)NCCC4)n2)cc1F (stereo not drawn) [Example 2, 3-(3-fluoro-4-methoxyphenyl)-4-{2-[3-(5,6,7,8-tetrahydro-1,8-naphthyridin-2-yl)propyl]-1,3-thiazol-4-yl}butanoic acid hydrochloride]
	2.2 ug-h/m/L/mg/Kg	COc1cc(OC)cc(C(CC(=O)O)Cc2csc(CCCc3ccc4c(n3)NCCC4)n2)c1 (stereo not drawn) [Example 5, 3-(3,5-dimethoxyphenyl)-4-{2-[3-(5,6,7,8-tetrahydro-1,8-naphthyridin-2-yl)propyl]-1,3-thiazol-4-yl}butanoic acid hydrochloride]
	1.6 ug-h/m/L/mg/Kg	COc1ccc(C(CC(=O)O)Cc2csc(CCCc3ccc4c(n3)NCCC4)n2)cn1 (stereo not drawn) [Example 13, 3-(6-Methoxypyridin-3-yl)-4-{2-[3-(5,6,7,8-tetrahydro-1,8-naphthyridin-2-yl)propyl]-1,3-thiazol-4-yl}butanoic acid hydrochloride]
